Reference: patent US6664214B1, “Uracil compounds and use thereof” (Sumitomo Chemical Company, Limited, priority 1999, dated 2003)

Key:
[1] = system: ivyleaf morningglory; assay: Test Example 1: foliar treatment on upland field; type: in vivo, Ipomoea hederacea; conditions: 125 g/ha, 8 days after application
Description: (§1) In the examples, the compounds are identified by the Compound Numbers as in Tables 1 to 3.
(§2) A cylindrical plastic pot having a diameter of 10 cm and a depth of 10 cm was filled with soil and seeded with ivyleaf momingglory, velvetleaf and bamyardgrass. These test plants were grown in a greenhouse for 9 days. Then each of compounds 1-1, 2-1, 2-2, 3-1 and 3-101 was formulated into an emulsifiable concentrate according to Formulation Example 2 and then diluted to the prescribed amount with water containing a spreading agent and the dilution was uniformly sprayed over the foliage of the test plants with sprayer at a rate of 1000 liters per hectare. After the application, the test plants were grown in the greenhouse for 8 days, and the herbicidal activity were determined.

[2] = system: velvetleaf; assay: Test Example 1: foliar treatment on upland field; type: in vivo, Abutilon theophrasti; conditions: 125 g/ha, 8 days after application
Description: as §1, §2

[3] = system: barnyardgrass; assay: Test Example 1: foliar treatment on upland field; type: in vivo, Echinochloa crus-galli; conditions: 125 g/ha, 8 days after application
Description: as §1, §2

[4] = system: velvetleaf; assay: Test Example 2: soil surface treatment on upland field; type: in vivo, Abutilon theophrasti; conditions: 500 g/ha, 12 days after application
Source text: (§3) In the examples, the compounds are identified by the Compound Numbers as in Tables 1 to 3. […] A cylindrical plastic pot having a diameter of 10 cm and a depth of 10 cm was filled with soil and seeded with velvetleaf. Then each of compounds 1-1, 2-1, 2-2, 3-1 and 3-101 was formulated into an emulsifiable concentrate according to Formulation Example 2 and then diluted to the prescribed amount with water and dilution was uniformly sprayed over the surface of the soil with sprayer at a rate of 1000 liters per hectare. After the application, the test plants were grown in a greenhouse for 12 days, and the herbicidal activity was examined.

[5] = system: ivyleaf morningglory; assay: Test Example 3: foliar treatment on upland field (Table 4); type: in vivo, Ipomoea hederacea; set-up: key: 0: little difference in the degree of germination or growth between the treated plants and the untreated plants at the time of examination; 10: the treated plants died completely or their germination or growth was completely inhibited; conditions: 125 g/ha active ingredient, examined 16 days after application, index 0-10
Description: (§4) In the examples, the compounds are identified by the Compound Numbers as in Tables 1 to 3. […] A cylindrical plastic pot having a diameter of 10 cm and a depth of 10 cm was filled with soil and seeded with ivyleaf momingglory, velvetleaf and barnyardgrass. These test plants were grown in a greenhouse for 10 days. Then each of compounds listed below was formulated into an emulsifiable concentrate according to Formulation Example 2 and then diluted to the prescribed amount with water containing a spreading agent and the dilution was uniformly sprayed over the foliage of the test plants with sprayer at a rate of 1000 liters per hectare. After the application, the test plants were grown in the greenhouse for 16 days, and the herbicidal activity were determined.

[6] = system: velvetleaf; assay: as above; type: in vivo, Abutilon theophrasti; set-up: key: 0: little difference in the degree of germination or growth between the treated plants and the untreated plants at the time of examination; 10: the treated plants died completely or their germination or growth was completely inhibited; conditions: 125 g/ha active ingredient, examined 16 days after application, index 0-10
Description: as §4

[7] = system: barnyardgrass; assay: as above; type: in vivo, Echinochloa crus-galli; set-up: key: 0: little difference in the degree of germination or growth between the treated plants and the untreated plants at the time of examination; 10: the treated plants died completely or their germination or growth was completely inhibited; conditions: 125 g/ha active ingredient, examined 16 days after application, index 0-10
Description: as §4

[8] = system: ivyleaf morningglory; assay: Test Example 4: soil surface treatment on upland field (Table 5); type: in vivo, Ipomoea hederacea; set-up: key: 0: little difference in the degree of germination or growth between the treated plants and the untreated plants at the time of examination; 10: the treated plants died completely or their germination or growth was completely inhibited; conditions: 500 g/ha active ingredient, examined 12 days after application, index 0-10
Source text: as §3, with “seeded ivyleaf morningglory, velvetleaf and barnyardgrass.” for “seeded with velvetleaf.”, “compounds listed below” for “compounds 1-1, 2-1, 2-2, 3-1 and 3-101”, “at the” for “at a”

[9] = system: velvetleaf; assay: as above; type: in vivo, Abutilon theophrasti; set-up: key: 0: little difference in the degree of germination or growth between the treated plants and the untreated plants at the time of examination; 10: the treated plants died completely or their germination or growth was completely inhibited; conditions: 500 g/ha active ingredient, examined 12 days after application, index 0-10
Source text: as §3, with “seeded ivyleaf morningglory, velvetleaf and barnyardgrass.” for “seeded with velvetleaf.”, “compounds listed below” for “compounds 1-1, 2-1, 2-2, 3-1 and 3-101”, “at the” for “at a”

[10] = system: barnyardgrass; assay: as above; type: in vivo, Echinochloa crus-galli; set-up: key: 0: little difference in the degree of germination or growth between the treated plants and the untreated plants at the time of examination; 10: the treated plants died completely or their germination or growth was completely inhibited; conditions: 500 g/ha active ingredient, examined 12 days after application, index 0-10
Source text: as §3, with “seeded ivyleaf morningglory, velvetleaf and barnyardgrass.” for “seeded with velvetleaf.”, “compounds listed below” for “compounds 1-1, 2-1, 2-2, 3-1 and 3-101”, “at the” for “at a”

[11] = system: large crabgrass; assay: Test Example 5: foliar treatment on upland field (Table 6); type: in vivo, Digitaria sanguinalis; set-up: key: 0: little difference in the degree of germination or growth between the treated plants and the untreated plants at the time of examination; 10: the treated plants died completely or their germination or growth was completely inhibited; conditions: 125 g/ha, 19 days after application, index 0 to 10
Description: In the examples, the compounds are identified by the Compound Numbers as in Tables 1 to 3. […] A pot for plug seedlings seeded with large crabgrass. The test plant was grown in a greenhouse for 14 days, then transplanted into a plastic pot having an area of 17×12 cm^2 and a depth of 7 cm, and further the test plants were grown in the greenhouse for 8 days. Then each of compounds listed below was formulated into an emulsifiable concentrate according to Formulation Example 2 and then diluted to the prescribed amount with water containing a spreading agent and the dilution was uniformly sprayed over the foliage of the test plants with sprayer at a rate of 1000 liters per hectare. After the application, the test plants were grown in the greenhouse for 19 days, and the herbicidal activity were determined.

[12] = system: large crabgrass; assay: Test Example 6: foliar treatment on upland field (Table 7); type: in vivo, Digitaria sanguinalis; set-up: key: 0: little difference in the degree of germination or growth between the treated plants and the untreated plants at the time of examination; 10: the treated plants died completely or their germination or growth was completely inhibited; conditions: 8 g/ha, 19 days after application, index 0 to 10
Description: (§5) In the examples, the compounds are identified by the Compound Numbers as in Tables 1 to 3. […] A plastic pot having a area of 27×20 cm^2 and a depth of 7.5 cm filled with soil, seeded with barnyardgrass. The test plant was grown in a greenhouse for 4 days. The seedlings of large crabgrass and giant foxtail, which were seeded into a pot for plug seedlings and grown in a greenhouse for 14 days, were transplanted into the plastic pot. The test plants, further, were grown in the greenhouse for 8 days. Then each of compound listed below was formulated into an emulsifiable concentrate according to Formulation Example 2 and then diluted to the prescribed amount with water containing a spreading agent and the dilution was uniformly sprayed over the foliage of the test plants with sprayer at a rate of 1000 liters per hectare. After the application, the test plants were grown in the greenhouse for 19 days, and the herbicidal activity were determined.

[13] = system: giant foxtail; assay: as above; type: in vivo, Setaria faberi; set-up: key: 0: little difference in the degree of germination or growth between the treated plants and the untreated plants at the time of examination; 10: the treated plants died completely or their germination or growth was completely inhibited; conditions: 8 g/ha, 19 days after application, index 0 to 10
Description: as §5

[14] = system: barnyardgrass; assay: as above; type: in vivo, Echinochloa crus-galli; set-up: key: 0: little difference in the degree of germination or growth between the treated plants and the untreated plants at the time of examination; 10: the treated plants died completely or their germination or growth was completely inhibited; conditions: 8 g/ha, 19 days after application, index 0 to 10
Description: as §5

Row | Compound | growth of ivyleaf morningglory [1] | growth of velvetleaf [2] | growth of barnyardgrass [3] | germination of velvetleaf [4] | Herbicidal effect Ivyleaf morningglory [5] | Herbicidal effect Velvetleaf [6] | Herbicidal effect Barnyardgrass [7] | Herbicidal effect Ivyleaf morningglory [8] | Herbicidal effect Velvetleaf [9] | Herbicidal effect Barnyardgrass [10] | Herbicidal effect Large crabgrass [11] | Herbicidal effect Large crabgrass [12] | Herbicidal effect Giant foxtail [13] | Herbicidal effect Barnyard-grass [14]
1 | COC(=O)C(C)Oc1ccc(COc2cc(-n3c(=O)cc(C(F)(F)F)n(C)c3=O)c(F)cc2Cl)cc1 (stereo not shown) [Compound 1-1, methyl 2-[4-({2-chloro-4-fluoro-5-[3-methyl-2,6-dioxo-4-(trifluoromethyl)-1,2,3,6-tetrahydropyrimidine-1-yl]phenoxyl}methyl)phenoxy]propionate] | completely controlled | completely controlled | completely controlled | completely controlled | 10 | 10 | 10 | 10 | 10 | 9 | 10 | 10 | 9 | 10
2 | COC(=O)C(C)Oc1cccc(COc2cc(-n3c(=O)cc(C(F)(F)F)n(C)c3=O)c(F)cc2Cl)c1 (stereo not shown) [Compound 2-1, methyl 2-[3-({2-chloro-4-fluoro-5-[3-methyl-2,6-dioxo-4-(trifluoromethyl)-1,2,3,6-tetrahydropyrimidine-1-yl]phenoxy}methyl)phenoxy]propionate] | completely controlled | completely controlled | completely controlled | completely controlled | 10 | 10 | 10 | 10 | 10 | 10 | 10 | 10 | 10 | 10
